In ChEMBL document CHEMBL3871294, “Synthesis of novel substituted pyrimidine derivatives bearing a sulfamide group and their in vitro cancer growth inhibition activity” (Bioorg Med Chem Lett, 2017):

Tests used:
[1] = Antiproliferative activity against human HT-29 cells after 48 hrs by SRB assay; format: functional; conditions: HT-29, 48 h
[2] = Antiproliferative activity against human M21 cells after 48 hrs by SRB assay; format: functional; conditions: M21, 48 h
[3] = Antiproliferative activity against estrogen dependent human MCF7 cells after 48 hrs by SRB assay; format: functional; conditions: MCF7, 48 h
[4] = Antiproliferative activity against human MDA-MB-231 cells; format: functional
[5] = Antiproliferative activity against human MDA-MB-468 cells; format: functional
[6] = Antiproliferative activity against human SKBR3 cells; format: functional; conditions: SK-BR-3
[7] = Antiproliferative activity against human T47D cells; format: functional
[8] = Antiproliferative activity against human HaCaT cells; format: cell-based
[9] = Antiproliferative activity against neonatal-NHDF cells; format: cell-based; conditions: human

| SMILES | GI50 [1] | GI50 [2] | GI50 [3] | GI50 [4] | GI50 [5] | GI50 [6] | GI50 [7] | GI50 [8] | GI50 [9] |
| --- | --- | --- | --- | --- | --- | --- | --- | --- | --- |
| CCCCc1ccc(-c2cc(N3CCC(CCNS(N)(=O)=O)CC3)ncn2)cc1 | 13.3 µM | 15.1 µM | 11.3 µM | – | – | – | – | – | – |
| NS(=O)(=O)NCCC1CCN(c2cc(-c3ccccc3Cl)ncn2)CC1 | 52.9 µM | 93.9 µM | 44.8 µM | – | – | – | – | – | – |
| NS(=O)(=O)NCC1CCN(c2cc(-c3ccc(C(F)(F)F)cc3)ncn2)CC1 | 29.1 µM | 43.1 µM | 22.5 µM | – | – | – | – | – | – |
| NS(=O)(=O)NCCC1CCN(c2cc(-c3ccc(C(F)(F)F)cc3)ncn2)CC1 | 22.6 µM | 34.8 µM | 15.2 µM | – | – | – | – | – | – |
| COc1ccccc1-c1cc(N2CCC(CNS(N)(=O)=O)CC2)ncn1 | > 100 µM | > 100 µM | 10.1 µM | > 100 µM | > 100 µM | > 100 µM | > 100 µM | > 100 µM | > 100 µM |
| CCCCc1ccc(-c2cc(N3CCC(CNS(N)(=O)=O)CC3)ncn2)cc1 | 15.2 µM | 47.2 µM | 21.8 µM | – | – | – | – | – | – |
| COc1ccc(-c2cc(N3CCC(CCNS(N)(=O)=O)CC3)ncn2)cc1 | 72.3 µM | 69.8 µM | 56.6 µM | – | – | – | – | – | – |
| Cc1ccc(-c2cc(N3CCC(CNS(N)(=O)=O)CC3)ncn2)cc1 | 33.9 µM | 71 µM | 30.6 µM | – | – | – | – | – | – |
| CC(C)(C)c1ccc(-c2cc(N3CCC(CCNS(N)(=O)=O)CC3)ncn2)cc1 | 10.3 µM | 18.4 µM | 13.1 µM | – | – | – | – | – | – |
| NS(=O)(=O)NCC1CCN(c2cc(-c3ccc(Cl)cc3)ncn2)CC1 | 37.7 µM | 50.3 µM | 25.5 µM | – | – | – | – | – | – |
| NS(=O)(=O)NCCC1CCN(c2cc(-c3cccc(Cl)c3)ncn2)CC1 | 31.6 µM | 50.7 µM | 31.2 µM | – | – | – | – | – | – |
| NS(=O)(=O)NCCC1CCN(c2cc(-c3cccc4ccccc34)ncn2)CC1 | 3.5 µM | 1.8 µM | 5.9 µM | – | – | – | – | – | – |
| NS(=O)(=O)NCC1CCN(c2cc(-c3ccccc3Cl)ncn2)CC1 | > 100 µM | > 100 µM | 62.4 µM | > 100 µM | > 100 µM | > 100 µM | 65.5 µM | > 100 µM | 93 µM |
| CCOC(=O)c1ccc(-c2cc(N3CCC(CCNS(N)(=O)=O)CC3)ncn2)cc1 | 6.8 µM | 9 µM | 6.2 µM | – | – | – | – | – | – |
| COc1ccccc1-c1cc(N2CCC(CCNS(N)(=O)=O)CC2)ncn1 | 74.3 µM | 96.9 µM | 69.8 µM | – | – | – | – | – | – |
| NS(=O)(=O)NCC1CCN(c2cc(-c3cccc4ccccc34)ncn2)CC1 | 6.8 µM | 6.6 µM | 12.1 µM | – | – | – | – | – | – |
| Cc1ccc(-c2cc(N3CCC(CCNS(N)(=O)=O)CC3)ncn2)cc1 | 52.3 µM | 57.6 µM | 47.5 µM | – | – | – | – | – | – |
| CCOC(=O)c1ccc(-c2cc(N3CCC(CNS(N)(=O)=O)CC3)ncn2)cc1 | 5.7 µM | 5 µM | 4.1 µM | – | – | – | – | – | – |
| NS(=O)(=O)NCCC1CCN(c2cc(-c3ccc(Cl)cc3)ncn2)CC1 | 30.5 µM | 45.2 µM | 19.7 µM | – | – | – | – | – | – |
| NS(=O)(=O)NCC1CCN(c2cc(-c3ccccc3)ncn2)CC1 | > 100 µM | > 100 µM | 34.3 µM | > 100 µM | > 100 µM | > 100 µM | 24.1 µM | > 100 µM | > 100 µM |
| NS(=O)(=O)NCC1CCN(c2cc(-c3cccc(Cl)c3)ncn2)CC1 | 47.5 µM | 62.5 µM | 47.1 µM | – | – | – | – | – | – |
| COc1ccc(-c2cc(N3CCC(CNS(N)(=O)=O)CC3)ncn2)cc1 | > 100 µM | > 100 µM | 35.3 µM | > 100 µM | > 100 µM | > 100 µM | 24.5 µM | > 100 µM | 77 µM |
| NS(=O)(=O)NCCC1CCN(c2cc(-c3ccccc3)ncn2)CC1 | 66.5 µM | > 100 µM | 53.2 µM | – | – | – | – | – | – |
| COC(=O)c1ccc(-c2cc(N3CCC(CNS(N)(=O)=O)CC3)ncn2)cc1 | 22.9 µM | 14.1 µM | 17.7 µM | – | – | – | – | – | – |
| NS(=O)(=O)NCC1CCN(c2cc(-c3ccccc3F)ncn2)CC1 | 80.4 µM | > 100 µM | 48.5 µM | – | – | – | – | – | – |
| NS(=O)(=O)NCCC1CCN(c2cc(-c3ccccc3F)ncn2)CC1 | 51.8 µM | 81.8 µM | > 100 µM | – | – | – | – | – | – |
| COC(=O)c1ccc(-c2cc(N3CCC(CCNS(N)(=O)=O)CC3)ncn2)cc1 | 19.6 µM | 19.6 µM | 17.6 µM | – | – | – | – | – | – |
| CC(C)(C)c1ccc(-c2cc(N3CCC(CNS(N)(=O)=O)CC3)ncn2)cc1 | 8.9 µM | 19.3 µM | 19.7 µM | – | – | – | – | – | – |
